What all share (assay type): cell-based
One assay deals with CCRF-CEM cells. The experiment in a line: Cell viability assay (CellTiter Glo, 72 hours) in CEM cells. The method, then: (§1) KG1a (CCL-246.1, ATCC) and CCRF-CEM (CCL-199, ATCC) cells were grown in RPMI-1640 media containing 10% FBS in T-75 flasks to a density of 1×10^6 cells per mL. Exponentially gown cells were used for the assay. Day 1: 7.5×10^3 cells were seeded in each well of 96 well plate. Day 2: Cells were treated with serial dilutions of each compound (starting 20 uM) or with DMSO as control for 72 hours. Day 5: CellTiter Glo (G9241, Promega) was added to the media of each well and measured by plate reader (Synergy 4, Biotek). Data analysis: Using GraphPad Prism 7 (GraphPad).

Another assay relates to DNMT-1. Briefly: Western blot analysis of DNMT-1 in CEM cells. The conditions noted are these: DNMT-1 depletion in CEM cells, 96 hours. The procedure: Cells were treated with serial dilutions of each compound (starting 100 uM for HCT-116 and NCI-H23 cells, and 20 uM for KG-1a and CCRF-CEM cells) or with DMSO as control for 96 hours. Cell lysates were collected and proteins were separated with a SDS-PAGE gel, transferred to a nitrocellulose membrane, blocked in 5% non-fat milk in TBS-T, and probed with anti DNMT-1 (1:7000) rabbit polyclonal antibodies (cat #ab19905, Abcam) in 5% non-fat milk in TBS-T overnight. Membranes were washed three times with TBS-T. The anti-rabbit IgG (7074p2, Cell Signaling) secondary antibody was added at a concentration of 1:5000 in 5% non-fat milk in TBS-T for two hours in room temperature. Membranes were then washed three times with TBS-T, 5 minutes each time. Membranes were then incubated with SuperSignal West Pico Chemiluminescent Substrate (#34080 Thermo) and exposed onto film. Membranes were stripped with stripping buffer (#21059, Thermo) and re-probed with mouse anti tubulin 1:10,000 (T9026, Sigma) and anti-mouse IgG 1:5,000 (70′76p2, Cell Signaling).

A further assay has as its system KG-1a cells. The experiment in a line: Cell viability assay (CellTiter Glo, 72 hours) in KG-1a cells. The procedure:
as §1

The mark [1] stands for this setting: Homo sapiens, CCRF-CEM, 72 h, read-out: Cell Line IC50 (μM) CEM.
Where [2] appears, read: Homo sapiens, KG-1a, 72 h, read-out: Cell Line IC50 (μM) KG-1a.
Setting [3] is: read-out: Cell Line IC50 (μM) CEM.
[4] abbreviates: read-out: Cell Line IC50 (μM) KG-1a.

Like-named read-outs stand apart in the source and are kept apart here.

As for `C[C@H](NP(=O)(OC[C@H]1S[C@@H](n2cnc(N)nc2=O)CC1O)Oc1ccccc1)C(=O)OC1CCCC1` (single isomer, unassigned) [Compound 8 Diastereomer 1], the IC50 is 2.08 µM in the assay on CCRF-CEM cells (setting [1]), 330 nM in the assay on DNMT-1 (listed as 8 Diastereomer 1) and 0.6 µM in the assay with KG-1a cells (setting [2]).
As to `C[C@H](NP(=O)(OC[C@H]1S[C@@H](n2cnc(N)nc2=O)CC1O)Oc1ccccc1)C(=O)OC1CCCC1` (single isomer, unassigned) [Compound 8 Diastereomer 2], the IC50 with CCRF-CEM cells (setting [3]) amounted to 1.65 µM; in the assay with DNMT-1 (listed as 8 Diastereomer 2) it was 450 nM; with KG-1a cells (setting [4]), 1.04 µM.
For `C[C@H](NP(=O)(OC[C@H]1S[C@@H](n2cnc(N)nc2=O)CC1O)Oc1cccc2ccccc12)C(=O)OCc1ccccc1` (single isomer, unassigned) [Compound 9 Diastereomer 1], the half-inhibitory concentration (IC50) with CCRF-CEM cells (listed as 9 Diastereomer 1, read-out: Cell Line IC50 (μM) CEM) amounted to 0.5 µM; with DNMT-1 (listed as 9 Diastereomer 1), 300 nM; in the assay with KG-1a cells (listed as 9 Diastereomer 1, read-out: Cell Line IC50 (μM) KG-1a) it was 1.1 µM.
For the compound `C[C@H](NP(=O)(OC[C@H]1S[C@@H](n2cnc(N)nc2=O)CC1O)Oc1cccc2ccccc12)C(=O)OCc1ccccc1` (single isomer, unassigned) [Compound 9 Diastereomer 2], the IC50 turned out to be 0.2 µM in the assay on CCRF-CEM cells (listed as 9 Diastereomer 2, read-out: Cell Line IC50 (μM) CEM); 1400 nM in the assay on DNMT-1 (listed as 9 Diastereomer 2); 0.4 µM in the assay with KG-1a cells (listed as 9 Diastereomer 2, read-out: Cell Line IC50 (μM) KG-1a).
On to `CC(C)COC(=O)[C@H](C)NP(=O)(OC[C@H]1S[C@@H](n2cnc(N)nc2=O)CC1O)Oc1cccc2ccccc12` (single isomer, unassigned) [Compound 10 Diastereomer 1], for which the figures for the IC50 with CCRF-CEM cells (setting [1]), with DNMT-1 (listed as 10 Diastereomer 1) and with KG-1a cells (setting [2]) were 0.2 µM, 600 nM and 0.3 µM, respectively.
As to `CC(C)COC(=O)[C@H](C)NP(=O)(OC[C@H]1S[C@@H](n2cnc(N)nc2=O)CC1O)Oc1cccc2ccccc12` (single isomer, unassigned) [Compound 10 Diastereomer 2], the IC50 stood at 0.2 µM with CCRF-CEM cells (setting [3]), 800 nM with DNMT-1 (listed as 10 Diastereomer 2) and 0.3 µM in the assay with KG-1a cells (setting [4]).
As for `CCC(CC)COC(=O)[C@H](C)NP(=O)(OC[C@H]1S[C@@H](n2cnc(N)nc2=O)C[C@@H]1O)Oc1cccc2ccccc12` (single isomer, unassigned) [Compound 11 Diastereomer 1], the results for the IC50 in the assay on CCRF-CEM cells (setting [1]), in the assay with DNMT-1 and in the assay on KG-1a cells (setting [2]) were 0.2 µM, 500 nM and 0.6 µM, respectively.
`CCC(CC)COC(=O)[C@H](C)NP(=O)(OC[C@H]1S[C@@H](n2cnc(N)nc2=O)CC1O)Oc1cccc2ccccc12` (single isomer, unassigned) [Compound 11 Diastereomer 2]: the results for the IC50 in the assay with CCRF-CEM cells (setting [1]), in the assay with DNMT-1 and in the assay with KG-1a cells (setting [2]) were 0.08 µM, 500 nM and 0.6 µM, respectively.
On to `CC(C)OC(=O)[C@H](C)NP(=O)(OC[C@H]1S[C@@H](n2cnc(N)nc2=O)C[C@@H]1O)Oc1cccc2ccccc12` (single isomer, unassigned) [Compound 12 Diastereomer 1], for which the IC50 in the assay with CCRF-CEM cells (listed as 12 Diastereomer 1, read-out: Cell Line IC50 (μM) CEM) amounted to 0.3 µM; with DNMT-1 (listed as 12 Diastereomer 1), 800 nM; with KG-1a cells (setting [2]) it was 0.6 µM.
For `CC(C)OC(=O)[C@H](C)NP(=O)(OC[C@H]1S[C@@H](n2cnc(N)nc2=O)C[C@@H]1O)Oc1cccc2ccccc12` (single isomer, unassigned) [Compound 12 Diastereomer 2], the IC50 in the assay with CCRF-CEM cells (listed as 12 Diastereomer 2, read-out: Cell Line IC50 (μM) CEM) was 0.1 µM; in the assay on DNMT-1 (listed as 12 Diastereomer 2) it was 1000 nM; in the assay on KG-1a cells (setting [4]), 0.7 µM.
Turning to `C[C@H](N[P@](=O)(OC[C@H]1S[C@@H](n2cnc(N)nc2=O)C[C@@H]1O)Oc1ccccc1)C(=O)OCc1ccccc1` [Compound 1, Benzyl ((S)-(((2R,3S,5R)-5-(4-amino-2-oxo-1,3,5-triazin-1(2H)-yl)-3-hydroxytetrahydrothiophen-2-yl)methoxy)(phenoxy)phosphoryl)-L-alaninate], the IC50 in the assay with CCRF-CEM cells (setting [1]) came out at 0.13 µM; in the assay with DNMT-1, 1200 nM; in the assay on KG-1a cells (setting [2]) it was 0.92 µM.
`CC(C)COC(=O)[C@H](C)N[P@](=O)(OC[C@H]1S[C@@H](n2cnc(N)nc2=O)C[C@@H]1O)Oc1ccccc1` [Compound 2, Isobutyl ((S)-(((2R,3S,5R)-5-(4-amino-2-oxo-1,3,5-triazin-1(2H)-yl)-3-hydroxytetrahydrothiophen-2-yl)methoxy)(phenoxy)phosphoryl)-L-alaninate]: the IC50 came out at 0.24 µM in the assay on CCRF-CEM cells (setting [1]), 800 nM in the assay on DNMT-1 and 1.34 µM in the assay on KG-1a cells (setting [2]).
For the compound `CC(C)OC(=O)[C@H](C)N[P@](=O)(OC[C@H]1S[C@@H](n2cnc(N)nc2=O)C[C@@H]1O)Oc1ccccc1` [Compound 4, Isopropyl ((S)-(((2R,3S,5R)-5-(4-amino-2-oxo-1,3,5-triazin-1(2H)-yl)-3-hydroxytetrahydrothiophen-2-yl)methoxy)(phenoxy)phosphoryl)-L-alaninate], the IC50 came out at 0.24 µM in the assay on CCRF-CEM cells (setting [1]), 850 nM with DNMT-1 and 0.57 µM with KG-1a cells (setting [2]).
Regarding `COC(=O)[C@H](C)N[P@](=O)(OC[C@H]1S[C@@H](n2cnc(N)nc2=O)C[C@@H]1O)Oc1ccccc1` [Compound 5, Methyl ((S)-(((2R,3S,5R)-5-(4-amino-2-oxo-1,3,5-triazin-1(2H)-yl)-3-hydroxytetrahydrothiophen-2-yl)-methoxy)(phenoxy)-phosphoryl)-L-alaninate], the results for the IC50 with CCRF-CEM cells (setting [1]), in the assay on DNMT-1 and in the assay with KG-1a cells (setting [2]) were 2.06 µM, 610 nM and 1.67 µM, respectively.
For `CCOC(=O)[C@H](C)N[P@](=O)(OC[C@H]1S[C@@H](n2cnc(N)nc2=O)C[C@@H]1O)Oc1ccccc1` [Compound 6, Ethyl ((S)-(((2R,3S,5R)-5-(4-amino-2-oxo-1,3,5-triazin-1(2H)-yl)-3-hydroxytetrahydrothiophen-2-yl)-methoxy)(phenoxy)-phosphoryl)-L-alaninate], the values for the half-maximal inhibitory concentration (IC50) in the assay with CCRF-CEM cells (setting [1]), in the assay on DNMT-1 and in the assay on KG-1a cells (setting [2]) were 1.73 µM, 350 nM and 0.31 µM, respectively.
As for `C[C@H](N[P@](=O)(OC[C@H]1S[C@@H](n2cnc(N)nc2=O)C[C@@H]1O)Oc1ccccc1)C(=O)OCc1ccc([N+](=O)[O-])o1` [Compound 7, (5-nitrofuran-2-yl)methyl ((S)-(((2R,3S,5R)-5-(4-amino-2-oxo-1,3,5-triazin-1(2H)-yl)-3-hydroxytetrahydro-thiophen-2-yl)-methoxy)(phenoxy)-phosphoryl)-L-alaninate], the IC50 in the assay with CCRF-CEM cells (setting [1]) worked out at 1.71 µM; in the assay with DNMT-1, 220 nM; in the assay with KG-1a cells (setting [2]), 0.76 µM.
Turning to `CCC(CC)COC(=O)[C@H](C)N[P@](=O)(OC[C@H]1S[C@@H](n2ccc(N)nc2=O)CC1O)Oc1ccccc1` (stereo partly drawn) [Compound 14], the IC50 amounted to 0.15 µM with CCRF-CEM cells (setting [1]), 1000 nM in the assay on DNMT-1 and 0.62 µM in the assay on KG-1a cells (setting [2]).
As for `CC(C)OC(=O)[C@H](C)N[P@](=O)(OC[C@H]1S[C@@H](n2ccc(N)nc2=O)CC1O)Oc1ccccc1` (stereo partly drawn) [Compound 15], the IC50 with CCRF-CEM cells (setting [1]) came to 0.37 µM; in the assay with DNMT-1 it was 330 nM; with KG-1a cells (setting [2]), 0.9 µM.
As to `Nc1ccn([C@H]2C[C@@H](O)[C@@H](CO)S2)c(=O)n1` [T-dCyd, 4-amino-1-[(2R,4R,5R)-4-hydroxy-5-(hydroxymethyl)thiolan-2-yl]pyrimidin-2-one, reference compound], the IC50 turned out to be 0.08 µM in the assay with CCRF-CEM cells (Homo sapiens, CCRF-CEM, read-out: Cell Line IC50 (μM) CEM); 470 nM with DNMT-1; 0.48 µM with KG-1a cells (Homo sapiens, read-out: Cell Line IC50 (μM) KG-1a).
